Patent US11566029B2, “Pyrazolo[1,5-a]pyrimidine-5,7-diamine compounds as CDK inhibitors and their therapeutic use” (CANCER RESEARCH TECHNOLOGY LIMITED, priority 2014, dated 2023)
Where a name gives a salt, the structure may show the parent alone. Read-outs that look alike come from different tables or passages of the source.

Assays:
CDK1/cycA1 = target: T1, CDK1/cycA1 (Homo sapiens, UniProt P06493); assay: In vitro kinase assay (PKLight luciferase ATP readout), CDK1; type: biochemical
T1 construct: purchased ProQinase GmbH
Description: (§1) Purified recombinant CDK1/cycA1, CDK2/cycA1, CDK4/cycD1, CDK5/p35NCK, CDK6/cycD1, CDK7/CycH/MAT1, and CDK9/CycT1 were purchased from ProQinase GmbH. Kinase assays were performed according to manufacturer's protocols. Rb-CTF (ProQinase GmbH) (cat number: 0040-0000-6) was used as the kinase substrate for CDK1, CDK2, CDK4, and CDK6 kinases. […] A luciferase assay (PKLight assay; Cambrex) was used to determine ATP remaining at the end of the kinase reaction, which provides a measure of kinase activity, according to the manufacturer's protocols.
(§2) Kinase assays were carried out by incubation of increasing amounts of test compound with purified recombinant CDK-Cyclin complex, followed by measurement of free ATP remaining in the reaction using the luciferase assay kit (PKLight, Cambrex) which therefore provided a measure of inhibition for the specific CDK.
(§3) 5 μL of 1× kinase buffer (Cell Signalling Technologies) was mixed with 200 ng CDK1, 200 ng CDK2, 50 ng CDK4, 100 ng CDK5, or 200 ng CDK6 with 5 μg Rb-CTF and 300 ng CDK7 or 200 ng CDK9 with 500 μM RNA Poll II CTD peptide. […] The mixture was incubated at 30° C. for 30 minutes. The reaction is stopped with 20 μL of Stop Solution (provided in the PKLight kit) for 10 minutes at room temperature. Then 40 μL of the luciferase mix was added to the reaction mixture which was incubated for a further 10 minutes at room temperature and measured using the Tecan Infinite 2000 plate reader. GraphPad Prism Software was used to generate standard curve and determine the IC50's for each CDK.

CDK4/cycD1 = target: T2, CDK4/cycD1 (Homo sapiens, UniProt P11802); assay: In vitro kinase assay (PKLight luciferase ATP readout), CDK4; type: biochemical; details: ATP at Km; three experiments
T2 construct: purchased ProQinase GmbH
T2 sequence (P11802 whole entry): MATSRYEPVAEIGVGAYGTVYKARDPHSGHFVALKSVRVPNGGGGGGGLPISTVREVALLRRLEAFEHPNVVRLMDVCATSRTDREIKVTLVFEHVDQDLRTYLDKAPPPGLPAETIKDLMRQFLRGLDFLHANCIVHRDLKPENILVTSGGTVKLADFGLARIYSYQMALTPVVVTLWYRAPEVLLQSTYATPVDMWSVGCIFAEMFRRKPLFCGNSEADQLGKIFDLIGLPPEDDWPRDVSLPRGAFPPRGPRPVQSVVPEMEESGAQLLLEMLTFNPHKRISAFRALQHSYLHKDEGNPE
T2 sequence (P24385 whole entry partner): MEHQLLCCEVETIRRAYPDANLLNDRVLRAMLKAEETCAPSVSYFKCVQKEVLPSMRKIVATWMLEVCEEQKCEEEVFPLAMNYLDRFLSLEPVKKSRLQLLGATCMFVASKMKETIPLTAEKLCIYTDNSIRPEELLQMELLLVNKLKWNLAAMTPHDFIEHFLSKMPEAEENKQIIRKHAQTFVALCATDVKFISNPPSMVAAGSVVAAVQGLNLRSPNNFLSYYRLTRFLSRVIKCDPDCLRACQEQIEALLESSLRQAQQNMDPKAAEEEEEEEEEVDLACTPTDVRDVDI
Description: as §1, §2
as §3, with “The reaction is stopped with 20 μL of Stop Solution (provided in the PKLight kit) for 10 minutes at room temperature.” left out, “GraphPad Prism Software was used to generate standard curve and determine the IC50's for each CDK.” left out

CDK5/p35NCK = target: T3, CDK5/p35NCK (Homo sapiens, UniProt Q00535); assay: In vitro kinase assay (PKLight luciferase ATP readout), CDK5; type: biochemical; details: ATP at Km; three experiments
T3 construct: purchased ProQinase GmbH
T3 sequence (Q00535 whole entry): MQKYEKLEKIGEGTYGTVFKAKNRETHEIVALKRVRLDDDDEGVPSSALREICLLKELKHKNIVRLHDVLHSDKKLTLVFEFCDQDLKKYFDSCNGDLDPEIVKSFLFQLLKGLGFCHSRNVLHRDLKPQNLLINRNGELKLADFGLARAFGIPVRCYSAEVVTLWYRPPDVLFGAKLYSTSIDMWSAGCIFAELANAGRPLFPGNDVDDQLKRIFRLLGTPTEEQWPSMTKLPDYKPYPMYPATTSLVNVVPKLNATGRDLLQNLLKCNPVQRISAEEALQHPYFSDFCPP
T3 sequence (Q15078 whole entry partner): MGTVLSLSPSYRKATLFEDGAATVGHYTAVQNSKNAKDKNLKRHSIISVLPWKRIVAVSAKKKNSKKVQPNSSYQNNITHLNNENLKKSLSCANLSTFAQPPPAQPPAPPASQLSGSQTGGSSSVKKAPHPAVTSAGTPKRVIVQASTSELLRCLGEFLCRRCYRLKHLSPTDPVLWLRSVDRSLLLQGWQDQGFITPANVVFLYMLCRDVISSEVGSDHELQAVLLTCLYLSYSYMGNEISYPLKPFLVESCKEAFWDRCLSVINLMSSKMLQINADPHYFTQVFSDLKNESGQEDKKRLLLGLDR
Description: as §1, §2
as §3, with “The reaction is stopped with 20 μL of Stop Solution (provided in the PKLight kit) for 10 minutes at room temperature.” left out, “GraphPad Prism Software was used to generate standard curve and determine the IC50's for each CDK.” left out

CDK6/cycD1 = target: T4, CDK6/cycD1 (Homo sapiens, UniProt Q00534); assay: In vitro kinase assay (PKLight luciferase ATP readout), CDK6; type: biochemical; details: ATP at Km; three experiments
T4 construct: purchased ProQinase GmbH
T4 sequence (Q00534 whole entry): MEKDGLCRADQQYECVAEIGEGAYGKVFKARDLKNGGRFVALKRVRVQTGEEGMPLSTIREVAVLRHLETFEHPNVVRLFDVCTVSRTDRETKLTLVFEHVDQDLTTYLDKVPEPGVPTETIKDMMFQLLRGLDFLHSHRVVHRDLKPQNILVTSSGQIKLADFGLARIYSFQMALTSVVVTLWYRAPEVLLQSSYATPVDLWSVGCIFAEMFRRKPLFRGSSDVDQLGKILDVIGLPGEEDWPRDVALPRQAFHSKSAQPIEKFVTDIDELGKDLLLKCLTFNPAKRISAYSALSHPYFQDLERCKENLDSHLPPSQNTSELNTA
T4 sequence (P24385 whole entry partner): as the sequence (P24385 whole entry partner) above
Description: as §1, §2
as §3, with “The reaction is stopped with 20 μL of Stop Solution (provided in the PKLight kit) for 10 minutes at room temperature.” left out, “GraphPad Prism Software was used to generate standard curve and determine the IC50's for each CDK.” left out

MCF7 cells = assay: Cell growth inhibition assay (sulforhodamine B), MCF7; type: cell-based; details: Homo sapiens
Description: (§4) All cells were purchased from the American Type Culture Collection (ATCC) and MCF7 cells were routinely cultured in Dulbecco's Modified Eagle's Medium (DMEM) supplemented with 10% fetal calf serum (FCS) (First Link) and HCT116 cells were routinely cultured in Roswell Park Memorial Instititute Medium (RPMI) supplemented with 10% FCS. Cell growth was assessed using a known sulforhodamine B assay (see, e.g., Skehan et al., 1990).
(§5) MCF-7 cells purchased from ATCC (USA) were routinely passaged in DMEM, supplemented with 10% FCS and HCT116 cells purchased from ATCC (USA) were routinely passaged in RPMI supplemented with 10% FCS and kept in a 37° C. incubator with 5% CO2. The growth assay for both cell lines was performed in the appropriate media using the exact same protocol as described here. For the growth assay, 5000 cells were seeded into each well of 96-well plates in DMEM containing 10% FCS. Test compounds prepared in DMSO were added to the medium at concentrations ranging from 0.00038-100 μM. The cells were incubated for a further 72 hours, at which time they were fixed by the addition of 100 μL/well of ice-cold 40% trichloroacetic acid (TCA). The plates were left for 1 hour at 4° C., washed in water and 100 μL of 0.4% (w/v) sulforhodamine (SRB; Sigma-Aldrich, UK) prepared in 1% acetic acid was added. Plates were washed in 1% acetic acid to remove excess SRB reagent, air dried, and bound dye was solubilized by the addition of 100 μL of 10 mM tris base. The plates were read at 492 nm using a plate reader.

HCT116 cells = assay: Cell growth inhibition assay (sulforhodamine B), HCT116; type: cell-based; details: Homo sapiens, HCT-116
Description: as §4, §5

[1] = system: human tumor cell lines (NCI60); assay: NCI60 cancer cell line screen; type: cell-based
Source text: To extend the analysis to a more extensive set of cancer cell lines, PPDA-001 was submitted to the National Cancer Institute's Division of Cancer Treatment and Diagnosis in vitro screen of human tumor cell lines (http://dtp.nci.nih.gov/branches/btb/ivclsp.html).
Each line represents one cell line.

HCT116 tumour xenograft = HCT116 tumour xenograft study; type: in vivo, female Balb/c nu/nu mice
[2] = system: phospho-ER S118 in MCF-7 cells; assay: Immunoblot of ER serine-118 phosphorylation in MCF-7 cells; type: cell-based; details: 1 μmol/L, time course, FIG. 6
Description: Cell lysates were prepared by the addition of RIPA buffer (Sigma-Aldrich, cat no: R0278). Immunoblotting was carried out using standard methods (see, e.g., Harlow & Lane, 1988, Antibodies: A Laboratory Manual, Cold Spring Harbor Laboratory Press, USA), with antibodies for the protein or phosphorylation mark indicated. β-actin was used as control for protein loading. The second antibody was HRP-coupled Goat anti Mouse or Rabbit IgG.

CDK2/cycA1 = target: T5, CDK2/cycA1 (Homo sapiens, UniProt P24941); assay: In vitro kinase assay (PKLight luciferase ATP readout), CDK2; type: biochemical; details: ATP at Km; read-out: In vitro Kinase Inhibition CDK2 IC50
T5 construct: purchased ProQinase GmbH
Description: as §1, §2, §3

CDK7/CycH/MAT1 = target: T6, CDK7/CycH/MAT1 (Homo sapiens, UniProt P50613); assay: In vitro kinase assay (PKLight luciferase ATP readout), CDK7; type: biochemical; details: for IC50: ATP at Km, read-out: In vitro Kinase Inhibition CDK7 IC50; for Selectivity CDK1/CDK7: ratio of CDK1 IC50 to CDK7 IC50; for Selectivity CDK2/CDK7: ratio of CDK2 IC50 to CDK7 IC50
T6 construct: purchased ProQinase GmbH
T6 sequence (P50613 whole entry): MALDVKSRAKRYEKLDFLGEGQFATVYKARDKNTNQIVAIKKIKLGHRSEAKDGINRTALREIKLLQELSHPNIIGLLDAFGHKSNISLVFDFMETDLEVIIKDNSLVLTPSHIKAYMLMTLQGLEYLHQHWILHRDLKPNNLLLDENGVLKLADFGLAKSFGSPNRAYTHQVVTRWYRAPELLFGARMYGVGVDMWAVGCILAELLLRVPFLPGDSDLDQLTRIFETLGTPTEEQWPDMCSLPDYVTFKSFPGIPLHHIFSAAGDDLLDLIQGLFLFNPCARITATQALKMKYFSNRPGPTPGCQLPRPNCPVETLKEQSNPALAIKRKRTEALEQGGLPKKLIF
T6 sequence (P51946 whole entry partner): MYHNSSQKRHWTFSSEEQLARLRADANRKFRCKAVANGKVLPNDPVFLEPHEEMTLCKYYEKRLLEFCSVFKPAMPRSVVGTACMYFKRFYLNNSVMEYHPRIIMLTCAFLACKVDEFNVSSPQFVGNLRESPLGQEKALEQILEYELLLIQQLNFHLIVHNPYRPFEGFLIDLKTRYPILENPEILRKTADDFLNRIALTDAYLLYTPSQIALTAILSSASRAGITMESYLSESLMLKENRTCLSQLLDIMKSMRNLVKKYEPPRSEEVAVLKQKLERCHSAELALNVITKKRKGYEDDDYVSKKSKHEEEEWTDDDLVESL
T6 sequence (P51948 whole entry partner): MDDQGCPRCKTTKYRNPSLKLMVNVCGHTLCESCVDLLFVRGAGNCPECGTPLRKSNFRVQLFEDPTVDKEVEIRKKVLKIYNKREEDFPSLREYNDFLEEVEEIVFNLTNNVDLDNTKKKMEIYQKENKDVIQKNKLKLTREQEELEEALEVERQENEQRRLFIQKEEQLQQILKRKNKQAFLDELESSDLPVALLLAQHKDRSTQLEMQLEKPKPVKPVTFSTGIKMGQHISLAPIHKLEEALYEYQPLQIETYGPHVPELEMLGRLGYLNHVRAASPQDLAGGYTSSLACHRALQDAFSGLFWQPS
Description: as §1, §2, §3

[3] = 72 hours, SRB assay, read-out: Growth Inhibition, GI50 MCF7
[4] = 72 hours, SRB assay, read-out: Growth Inhibition, GI50 HCT116
[5] = ATP at Km, read-out: In vitro Kinase Inhibition CDK1 IC50

Structure (SMILES) | IC50 (CDK1/cycA1) [nM] | IC50 (CDK4/cycD1) [µM] | IC50 (CDK5/p35NCK) [µM] | IC50 (CDK6/cycD1) [µM] | GI50 (MCF7 cells; [3]) [µM] | GI50 (MCF7 cells; read-out: GI50, breast (MCF7) cancer cell line) [µM] | GI50 (HCT116 cells; [4]) [µM] | GI50 (HCT116 cells; read-out: GI50, colorectal (HCT116) cancer cell line) [µM] | IC50 (CDK1/cycA1; [5]) [nM] | IC50 (CDK2/cycA1) [nM] | IC50 (CDK7/CycH/MAT1) [nM] | Selectivity CDK1/CDK7 (CDK7/CycH/MAT1) [fold] | Selectivity CDK2/CDK7 (CDK7/CycH/MAT1) [fold] | GI50 ([1]; mean of all 60 cell lines, read-out: mean GI50 over 60 cancer cell lines) [nM] | GI50 ([1]; range over all 60 cell lines, read-out: range GI50 over 60 cancer cell lines) [nM] | reduction in tumor growth (HCT116 tumour xenograft; 50 mg/kg/bi-daily and 100 mg/kg once daily PO, compared with the control arms) [%] | Animal weight (percent body weight) (HCT116 tumour xenograft; PPDA-001 treatment arms (50 mg/kg bi-daily, 100 mg/kg once daily, PO), over the course of the study, vehicle 98%) [%] | phosphorylation of ER at serine-118 (phospho-ER S118) [2]
CC(C)c1cnn2c(NCc3ccccc3)cc(N[C@H]3CNCC3O)nc12 (stereo in doubt) [PPDA-015, (3S,4S)-4-(7-(Benzylamino)-3-iso-propyl-pyrazolo[1,5-a]pyrimidin-5-ylamino)-pyrrolidin-3-ol hydrochloride] |  |  |  |  | 4.1 |  | 12.7 |  | 3950 | 1290 | 27 | 146 | 48 |  |  |  |  | 
COC[C@H]1C[C@@H](Nc2cc(NCc3ccccc3)n3ncc(C(C)C)c3n2)CN1 [PPDA-027] |  |  |  |  | 3.4 |  | 8.9 |  | 253 | 680 | 18 | 14 | 38 |  |  |  |  | 
CC(C)c1cnn2c(NCc3ccc(C(F)(F)F)cc3)cc(N[C@H]3CNC[C@H]3O)nc12 [PPDA-017] |  |  |  |  | 12.8 |  | 11.4 |  | 1350 | 754 | 1890 | 0.7 | 0.4 |  |  |  |  | 

More lines, in order of falling GI50 (MCF7 cells; [3]), values ahead:

IC50 (CDK1/cycA1) [nM] | IC50 (CDK4/cycD1) [µM] | IC50 (CDK5/p35NCK) [µM] | IC50 (CDK6/cycD1) [µM] | GI50 (MCF7 cells; [3]) [µM] | GI50 (MCF7 cells; read-out: GI50, breast (MCF7) cancer cell line) [µM] | GI50 (HCT116 cells; [4]) [µM] | GI50 (HCT116 cells; read-out: GI50, colorectal (HCT116) cancer cell line) [µM] | IC50 (CDK1/cycA1; [5]) [nM] | IC50 (CDK2/cycA1) [nM] | IC50 (CDK7/CycH/MAT1) [nM] | Selectivity CDK1/CDK7 (CDK7/CycH/MAT1) [fold] | Selectivity CDK2/CDK7 (CDK7/CycH/MAT1) [fold] | Structure (SMILES) | GI50 ([1]; mean of all 60 cell lines, read-out: mean GI50 over 60 cancer cell lines) [nM] | GI50 ([1]; range over all 60 cell lines, read-out: range GI50 over 60 cancer cell lines) [nM] | reduction in tumor growth (HCT116 tumour xenograft; 50 mg/kg/bi-daily and 100 mg/kg once daily PO, compared with the control arms) [%] | Animal weight (percent body weight) (HCT116 tumour xenograft; PPDA-001 treatment arms (50 mg/kg bi-daily, 100 mg/kg once daily, PO), over the course of the study, vehicle 98%) [%] | phosphorylation of ER at serine-118 (phospho-ER S118) [2]
 |  |  |  | 3.3 |  | 7.3 |  | 4010 | 262 | 43 | 93 | 6.1 | CC(C)c1cnn2c(NCc3ccccc3)cc(N[C@H]3CN[C@@H](CO)C3)nc12 [PPDA-028] |  |  |  |  | 
1520 | 42.1 | 9 | 32.1 | 0.96 | < 1 | 0.63 | < 1 |  |  |  |  |  | CC(C)c1cnn2c(NCc3ccccc3)cc(NC[C@H]3CCNC[C@@H]3O)nc12 [PPDA-001, (3R,4R)-4-(((7-(Benzylamino)-3-isopropylpyrazolo[1,5-a]pyrimidin-5-yl)amino)methyl)piperidin-3-ol hydrochloride] | 280 | 40 to 2100 | 65 | 92 | inhibits phosphorylation of ER at serine-118
